Results as given in patent US8993839B2, “Plant-based production of heterologous proteins” (The Regents of the University of California, priority 2010, dated 2015).

Target: Acidothermus cellulolyticus β-1,4-endoglucanase E1 (P. pastoris-produced) (Acidothermus cellulolyticus, UniProt P54583)
Assay: Michaelis-Menten kinetics of purified E1 (produced in P. pastoris, IMAC purified): cleavage of MUC to cellobiose and MU at various temperatures
Assay type: biochemical
Settings: substrate MUC, E1 concentration by Bradford assay
Protocol: Endoglucanase activity assay: Endoglucanase (E1) cleaves methylumbelliferyl-tagged cellobiose (MUC), releasing methylumbelliferone (MU). The MU fluorescence can be measured to determine E1 activity. The relative fluorescence readings of 0.024 to 3.0 μM MU solutions were used to create a linear standard curve. Samples containing E1 were diluted so the concentration of MU released fell within the standard curve. A 60 μl aliquot of diluted supernatant was added to 540 μl of acetate buffer (200 mM acetate, pH 5.5, 100 mM NaCl) and 200 μl of substrate (500 μM MUC). 200 μl of reaction was sampled at time zero and after 30 minutes and added to 800 μl of stop buffer (150 mM glycine, pH 10). The change in fluorescence over time was measured with a VersaFluor fluorometer (Bio-Rad). Fluorescence was converted to an activity, and the specific activity reported in the literature was used to approximate the concentration of E1 in Pichia supernatants. The Michaelis-Menten kinetic parameters of purified endoglucanase were determined. The E1 was produced in P. pastoris and purified by IMAC (immobilized metal affinity chromatography). E1 cleaves the substrate (MUC) into cellobiose and a fluorophore (MU), the concentration of which can be monitored over time. When run at 65° C. and […] substrate, this is the reaction used for the activity assay for E1 in plant extracts and yeast cultures. In this set of experiments, the substrate concentration was varied to determine the kinetic parameters at different temperatures. The rate for a reaction displaying Michaelis-Menten kinetics is shown in Equation 1. The rate depends on the catalysis rate (kcat), the total enzyme concentration (ET), the adsorption/desorption rates which are lumped into the Michaelis-Menten constant (KM), and the substrate concentration (S). At high substrate concentrations (S>>KM), the rate approaches a maximum, and […] is often written as Vmax. The parameters Vmax and KM can be determined experimentally by varying the substrate concentration (S) and measuring the reaction rate (V) at each concentration. Equation 1 can be rearranged as a linear equation (Equation 2). When the reciprocal of the reaction rate (V) is plotted against the reciprocal of the substrate concentration (S), a line fitting the data points can be used to determine KM/Vmax (the slope) and 1/Vmax (y-intercept). A Bradford assay was used to determine the E1 protein concentration in each sample, and this value of ET was used to calculate the kcat values in Table 1. Table 1 depicts a summary of Michaelis-Menten parameters for E1-catalyzed degradation of MUC to MU at various temperatures.

Sequence of Acidothermus cellulolyticus β-1,4-endoglucanase E1 (P. pastoris-produced) (P54583 other isoform, or with tags, fused parts or gaps): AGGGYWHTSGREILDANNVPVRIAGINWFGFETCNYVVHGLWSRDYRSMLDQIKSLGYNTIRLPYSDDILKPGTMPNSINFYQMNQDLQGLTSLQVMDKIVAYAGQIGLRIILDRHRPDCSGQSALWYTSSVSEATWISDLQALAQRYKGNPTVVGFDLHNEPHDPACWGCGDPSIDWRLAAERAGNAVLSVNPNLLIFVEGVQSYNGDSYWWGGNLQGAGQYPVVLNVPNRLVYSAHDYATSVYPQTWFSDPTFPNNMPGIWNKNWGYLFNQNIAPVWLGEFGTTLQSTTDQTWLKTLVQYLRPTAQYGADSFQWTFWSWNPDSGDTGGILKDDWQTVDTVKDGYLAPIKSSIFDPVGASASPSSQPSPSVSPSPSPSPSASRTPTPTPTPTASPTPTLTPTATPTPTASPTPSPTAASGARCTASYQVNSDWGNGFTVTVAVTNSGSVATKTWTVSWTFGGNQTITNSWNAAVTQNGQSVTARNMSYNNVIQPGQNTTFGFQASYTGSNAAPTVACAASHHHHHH

kcat (50 °C): 106 ± 5 L/min | kcat (65 °C): 309 ± 13 L/min | kcat (80 °C): 667 ± 92 L/min | kcat (93 °C, uncertainty approaches 100%, not used further): 292 ± 284 L/min
Structure (SMILES): Cc1cc(=O)oc2cc(O[C@@H]3O[C@H](CO)[C@@H](O[C@@H]4O[C@H](CO)[C@@H](O)[C@H](O)[C@H]4O)[C@H](O)[C@H]3O)ccc12 [MUC, methylumbelliferyl-tagged cellobiose]
